Test results as given in patent publication US20050196492A1, “Food preservative method and system using vanillin and constituent having isothiocynate compound” (priority 2004, published 2005).

Key:
[1] = system: Rhizopusus stolonifer and Aspergillus niger; assay: Combination of vanillin and VOM (AIT) in MRE package, growth grid, both fungi; assay type: cell-based, Rhizopus stolonifer and Aspergillus niger; details: Vanillin 0 ppm
Method: (§1) Four bread spoilage organisms were used in determining the inhibition properties of vanillin and VOM: (1) Penicillium notatum, (2) Rhizopus stolonifer, (3) Aspergillus niger and (4) Saccharomycopsis fibuligera. For purposes of this analysis, Wasaouro® was used as the source of VOM. The antimicrobial tests were conducted in MRE air-impermeable laminated packages without bread. Petri dishes containing the appropriate growth medium were inoculated with a selected spoilage organism and then sealed with various concentrations of vanillin and/or Wasaouro®. The vanillin was incorporated directly into the growth medium while the Wasaouro® was kept separate from the organism within the MRE package. […] Wasaouro® was effective at low headspace concentrations (e.g. 17 μg/L (AIT)) with the exception of Rhizopus stolonifer which is resistant to AIT even at much higher concentrations.

[2] = system: Saccharomycopsis fibuligera; assay: Antimicrobial properties of VOM (Wasaouro vapor) alone in MRE package, growth/no growth; assay type: cell-based; details: AIT by gas chromatography at time zero, 25° C., seven days
Method: (§2) Similarly, the antimicrobial properties of VOM (without vanillin) were evaluated against the four organisms shown in Table I. In order to evaluate the antimicrobial properties of VOM against each of these foregoing organisms, the modeling system employed several MRE packages. Each MRE package contained two Petri dishes. One Petri dish, 100 mm×15 mm, contained a medium and a selected organism. […] The cellulose filter pad for each 60 mm×15 mm Petri dish received a measured quantity of Wasaouro®. A stock solution of Wasaouro® powder was made and volumes of 100, 200, 400, 600, 800 and 1000 μl were added respectively to the filter pads of the 60 mm×15 mm Petri dishes for each group. […] The amount of the volatile active component of Wasaouro®, allyl isothiocyanate, was determined using gas chromatography. Each Petri dish in the first group was inoculated with Penicillium notatum, inoculum 10^5 spores/ml. Each Petri dish in the first group was then uncovered and placed in its own MRE impermeable laminated package. Similarly, each Petri dish in the second group of Petri dishes was inoculated with Rhizopus stolonifer, inoculum 10^5 spores/ml. Each Petri dish in the second group was then uncovered and then placed in its own MRE impermeable laminated package. In a similar manner, each Petri dish in the third group of Petri dishes was inoculated with Aspergillus niger, inoculum 10^5 spores/ml. Each Petri dish in the third group was then uncovered and then placed in its own MRE impermeable laminated package. Similarly, each Petri dish in the fourth group of Petri dishes was inoculated with Saccharomycopsis fibuligera, inoculum 10^5 spores/ml. Each Petri dish in the fourth group was then uncovered and then placed in its own MRE impermeable laminated package. All MRE packages (for all groups of Petri dishes) were then incubated at 25° C. for seven days. The determination of effectiveness of VOM as an antimicrobial agent was based on a growth or no growth basis. Petri dishes with no growth were left out for seven days after removal from the MRE package to ensure that there was no additional growth. For each experiment, a set of control MRE packages were made with the various concentrations of Wasaouro®. These control packages were used to extrapolate the relative amounts of allyl isothiocyanate in the experimental MRE packages at time zero.

Penicillium notatum = assay: as above; assay type: cell-based; details: AIT by gas chromatography at time zero, 25° C., seven days
Method: as §2

Rhizopus stolonifer = assay: as above; assay type: cell-based
Method: as §2

Aspergillus niger [3] = assay: as above; assay type: cell-based; details: AIT by gas chromatography at time zero, 25° C., seven days
Method: as §2

Rhizopusus stolonifer = assay: Combination of vanillin and VOM (AIT) in MRE package, growth grid; assay type: cell-based, Rhizopus stolonifer; details: Vanillin 0 ppm
Method: as §1

Aspergillus niger [4] = assay: as above; assay type: cell-based; details: for growth of Aspergillus niger: Vanillin 0 ppm
Method: as §1
Next, both antimicrobial agents were tested against two of the more resistant organisms, Rhizopus stolonifer and Aspergillus niger.

C=CCN=C=S [AIT, allyl isothiocyanate]
growth of Rhizopusus stolonifer and Aspergillus niger ([1]; AIT 55 ug/L): Growth
growth of Rhizopusus stolonifer and Aspergillus niger ([1]; AIT 145 ug/L): Growth
growth of Rhizopusus stolonifer and Aspergillus niger ([1]; AIT 150 ug/L): Growth
growth of Rhizopusus stolonifer and Aspergillus niger ([1]; AIT 420 ug/L): Growth
growth of Rhizopusus stolonifer and Aspergillus niger ([1]; AIT 465 ug/L): Growth
growth of Rhizopusus stolonifer and Aspergillus niger ([1]; AIT 905 ug/L): Growth
Effective Amount Of Allyl Isothiocyanate [2]: ˜8 ppm
Effective Amount Of Allyl Isothiocyanate (Penicillium notatum): ˜17 ppm
Effective Amount Of Allyl Isothiocyanate (Rhizopus stolonifer; Wasaouro vapor in MRE package, AIT by gas chromatography at time zero, 25° C., seven days): >470 ppm
susceptibility of Rhizopus stolonifer to AIT (Rhizopus stolonifer; even at much higher concentrations than 17 μg/L): resistant
Effective Amount Of Allyl Isothiocyanate (Aspergillus niger [3]): ˜17 ppm
growth of Rhizopusus stolonifer (Rhizopusus stolonifer; AIT 55 ug/L): Growth
growth of Rhizopusus stolonifer (Rhizopusus stolonifer; AIT 145 ug/L): Growth
growth of Rhizopusus stolonifer (Rhizopusus stolonifer; AIT 150 ug/L): Growth
growth of Rhizopusus stolonifer (Rhizopusus stolonifer; AIT 420 ug/L): Growth
growth of Rhizopusus stolonifer (Rhizopusus stolonifer; AIT 465 ug/L): Growth
growth of Rhizopusus stolonifer (Rhizopusus stolonifer; AIT 905 ug/L): Growth
sensitivity of Aspergillus niger to AIT (Aspergillus niger [4]): very sensitive
growth of Aspergillus niger (Aspergillus niger [4]; AIT 55 ug/L): Growth
growth of Aspergillus niger (Aspergillus niger [4]; AIT 145 ug/L): N/G
growth of Aspergillus niger (Aspergillus niger [4]; AIT 150 ug/L): Growth
growth of Aspergillus niger (Aspergillus niger [4]; AIT 420 ug/L): N/G
growth of Aspergillus niger (Aspergillus niger [4]; AIT 465 ug/L): N/G
growth of Aspergillus niger (Aspergillus niger [4]; AIT 905 ug/L): N/G
